Patent US5736380A, “Maltose-trehalose converting enzyme, and preparation and uses thereof” (Kabushiki Kaisha Hayashibara Seibutsu Kagaku Kenkyujo, priority 1993, dated 1998)
Entries after “also recorded” stand apart in the source; their conditions may differ. Where a name gives a salt, the structure may show the parent alone.

Key:
[1] = biological target: maltose-trehalose converting enzyme derived from Pseudomonas putida H262 (Pseudomonas putida, UniProt Q88FN0); assay: Inhibition of enzyme activity; assay type: biochemical; settings: one mM Cu^++ or Hg^++, 50 mM Tris-HCl buffer
Procedure: (§1) The activity of the present maltose-trehalose converting enzyme is assayed as follows: One ml of an enzyme solution is added to one ml of 20 w/v % maltose as a substrate in 10 mM phosphate buffer (pH 7.0), and the mixture solution is incubated at 25° C., 35° C. or 60° C. for 60 min, followed by the heating the solution at 100° C. for 10 min to suspend the enzymatic reaction. To the resultant reaction mixture is precisely diluted by 11-fold with 50 mM phosphate buffer (pH 7.5), and 0.4 ml of the diluted solution is admixed with 0.1 ml of a trehalase solution having one unit/ml of trehalase. […] As a control, by using trehalase and an enzyme solution, which were preheated at 100° C. for 10 min to inactivate the enzyme, the activity of the enzyme solution is assayed similarly as above. […] As regards to the reaction temperature, it is set to 25° C. for the enzyme of a microorganism of the genus Pimelobacter; 35° C. for that of the genus Pseudomonas; and 60° C. for that of the genus Thermus.
Effects of temperature and pH on the activity of the present enzyme were studied in accordance with the method as used for assaying the enzyme activity. The results were respectively shown in FIG. 5 (effect of temperature) and FIG. 6 (effect of pH). The optimum temperature of the enzyme was about […] when incubated at pH 7.0 for 60 min and the optimum pH was about 7.3-8.3 when incubated at 35° C. for 60 min. The thermal stability of the enzyme was determined by incubating it in containers with 50 mM phosphate buffers (pH 7.0) at different temperatures for 60 min, cooling the resultant buffers in the containers with cold water, and assaying the residual enzyme activity in each buffer. The pH stability of the enzyme was determined by incubating it in 50 mM phosphate buffers having different pHs at 35° C. for 60 min, adjusting the resultant buffers to pH 7.0, and assaying the residual enzyme activity in each buffer. The enzyme was stable up to a temperature of about 40° C. and stable at a pH of about 6.0-9.5. […]

[2] = test system: maltose-trehalose converting enzyme; assay: Inhibition of activity of the present enzyme; assay type: biochemical, microorganisms; settings: one mM Cu^++, Hg^++ and Tris-HCl buffer
Procedure: as §1

[3] = biological target: T1, maltose-trehalose converting enzyme derived from Pimelobacter sp. R48 (Pimelobacter sp., UniProt P72235); assay: Inhibition of enzyme activity; assay type: biochemical; settings: one mM Cu^++ or Hg^++, 50 mM Tris-HCl buffer
T1 construct: The culture obtained in Experiment 1 was centrifuged to obtain an about 0.5 kg wet cells; endogenous in cells; host or cells: Pimelobacter sp; R48 (FERM BP-4315), enzyme purified from the disrupted wild-type cells
T1 sequence (P72235 1-573): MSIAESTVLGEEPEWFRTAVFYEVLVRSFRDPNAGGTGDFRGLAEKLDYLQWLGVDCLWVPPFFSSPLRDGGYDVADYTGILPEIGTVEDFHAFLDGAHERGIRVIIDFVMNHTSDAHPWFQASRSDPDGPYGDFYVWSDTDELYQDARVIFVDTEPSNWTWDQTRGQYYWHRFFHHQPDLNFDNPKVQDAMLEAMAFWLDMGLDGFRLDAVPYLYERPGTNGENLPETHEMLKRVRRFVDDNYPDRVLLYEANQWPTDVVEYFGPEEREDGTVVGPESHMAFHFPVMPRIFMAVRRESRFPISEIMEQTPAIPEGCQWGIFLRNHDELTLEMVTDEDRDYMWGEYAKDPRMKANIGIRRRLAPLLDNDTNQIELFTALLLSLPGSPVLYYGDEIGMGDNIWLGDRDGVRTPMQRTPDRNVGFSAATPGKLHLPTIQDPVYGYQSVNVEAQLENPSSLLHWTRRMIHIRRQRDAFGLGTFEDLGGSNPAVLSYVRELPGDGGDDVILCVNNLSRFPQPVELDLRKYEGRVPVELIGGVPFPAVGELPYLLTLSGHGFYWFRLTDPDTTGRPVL
Procedure: The activity of the present maltose-trehalose converting enzyme is assayed as follows: One ml of an enzyme solution is added to one ml of 20 w/v % maltose as a substrate in 10 mM phosphate buffer (pH 7.0), and the mixture solution is incubated at 25° C., 35° C. or 60° C. for 60 min, followed by the heating the solution at 100° C. for 10 min to suspend the enzymatic reaction. To the resultant reaction mixture is precisely diluted by 11-fold with 50 mM phosphate buffer (pH 7.5), and 0.4 ml of the diluted solution is admixed with 0.1 ml of a trehalase solution having one unit/ml of trehalase. The resultant solution is incubated at 45° C. for 120 min, followed by determining the amount of glucose by the glucose-oxidase method. As a control, by using trehalase and an enzyme solution, which were preheated at 100° C. for 10 min to inactivate the enzyme, the activity of the enzyme solution is assayed similarly as above. With the above assay, the content of trehalose, formed by the present maltose-trehalose converting enzyme, is determined based on the amount of glucose formed, and one unit activity of the enzyme is defined as the amount of enzyme which forms one μmole of trehalose per minute. As regards to the reaction temperature, it is set to 25° C. for the enzyme of a microorganism of the genus Pimelobacter; 35° C. for that of the genus Pseudomonas; and 60° C. for that of the genus Thermus.
Effects of temperature and pH on the activity of the present enzyme were studied in accordance with the method as used for assaying the enzyme activity. […] The thermal stability of the enzyme was determined by incubating it in 50 mM phosphate buffers (pH 7.0) in test tubes at different temperatures for 60 min, cooling the test tubes with cold water, and assaying the residual enzyme activity in each buffer. The pH stability of the enzyme was determined by incubating it in 50 mM phosphate buffers having different pHs at 20° C. for 60 min, adjusting the buffers to pH 7.0, and assaying the residual enzyme activity in each buffer.

Sequence of maltose-trehalose converting enzyme derived from Pseudomonas putida H262 (Q88FN0 entry or part of it): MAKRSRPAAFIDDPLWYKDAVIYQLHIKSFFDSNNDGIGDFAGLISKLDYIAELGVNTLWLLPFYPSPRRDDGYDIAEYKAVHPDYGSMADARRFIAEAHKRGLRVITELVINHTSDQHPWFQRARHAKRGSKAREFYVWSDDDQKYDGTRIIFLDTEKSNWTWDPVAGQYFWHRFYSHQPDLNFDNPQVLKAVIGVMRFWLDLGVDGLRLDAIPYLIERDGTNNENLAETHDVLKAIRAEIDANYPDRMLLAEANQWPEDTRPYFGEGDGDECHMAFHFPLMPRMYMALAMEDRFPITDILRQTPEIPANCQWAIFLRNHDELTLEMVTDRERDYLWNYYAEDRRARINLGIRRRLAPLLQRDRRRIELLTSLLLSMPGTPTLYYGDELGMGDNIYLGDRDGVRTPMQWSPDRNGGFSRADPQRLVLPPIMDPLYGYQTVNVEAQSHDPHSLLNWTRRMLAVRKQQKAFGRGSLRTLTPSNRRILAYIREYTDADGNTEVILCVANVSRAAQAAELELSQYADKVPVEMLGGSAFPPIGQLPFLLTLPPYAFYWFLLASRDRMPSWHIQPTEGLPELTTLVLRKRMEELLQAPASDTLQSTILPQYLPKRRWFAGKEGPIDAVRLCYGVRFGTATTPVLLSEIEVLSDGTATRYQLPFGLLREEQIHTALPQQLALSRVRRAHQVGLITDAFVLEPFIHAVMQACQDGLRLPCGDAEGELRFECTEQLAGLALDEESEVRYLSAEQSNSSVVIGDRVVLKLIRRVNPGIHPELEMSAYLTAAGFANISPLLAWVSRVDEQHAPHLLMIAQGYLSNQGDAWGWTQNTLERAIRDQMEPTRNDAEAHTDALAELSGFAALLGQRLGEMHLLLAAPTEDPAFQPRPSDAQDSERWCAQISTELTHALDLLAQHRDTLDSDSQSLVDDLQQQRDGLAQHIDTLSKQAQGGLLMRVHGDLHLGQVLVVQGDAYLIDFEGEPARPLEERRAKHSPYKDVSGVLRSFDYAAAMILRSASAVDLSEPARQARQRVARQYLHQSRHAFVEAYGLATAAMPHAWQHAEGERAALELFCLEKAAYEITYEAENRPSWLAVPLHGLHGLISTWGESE

Compound | Inhibition of activity [1] | Inhibition of activity [2] | Inhibition of activity [3]
[Cu+2] [Cu^++] | inhibited; also recorded: inhibitory | inhibited | inhibited; also recorded: inhibitory
[Hg+2] [Hg^++] | inhibited; also recorded: inhibitory | inhibited | inhibited; also recorded: inhibitory
NC(CO)(CO)CO [Tris-HCl buffer] | inhibited; also recorded: inhibitory | inhibited | inhibited; also recorded: inhibitory
